Laboratory results: patent EP4273147A1, “SUBSTITUTED SPIROLACTAMS, SALTS THEREOF AND THEIR USE AS HERBICIDALLY ACTIVE SUBSTANCES” (Bayer Aktiengesellschaft, priority 2022, dated 2023)

Assays:
ABUTH [1] = test: Herbicidal pre-emergence action (Table A1); format: in vivo, Abutilon theophrasti; conditions: application rate 1280 g/ha; visual grading after ca. 3 weeks vs untreated controls (100% = plants have died off, 0% = as control plants)
Outline: (§1)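 For this pre-emergence setup, sandy loam pots received seeds of one monocot and one dicot weed species each. The seeds were then covered with soil.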

ECHCG [2] = test: Herbicidal pre-emergence action (Table A2); format: in vivo, Echinochloa crus-galli; conditions: application rate 320 g/ha; visual grading after ca. 3 weeks
Outline: as §1

LOLRI [3] = test: Herbicidal pre-emergence action (Table A3); format: in vivo, Lolium rigidum; conditions: Lolium rigidum, pre-emergence, 504 h, application rate 320 g/ha; visual grading after ca. 3 weeks; read-out: pre-emergence activity against LOLRI
Outline: as §1

MATIN [4] = test: Herbicidal pre-emergence action (Table A4); format: in vivo, Matricaria inodora; conditions: application rate 320 g/ha; visual grading after ca. 3 weeks
Outline: as §1

SETVI [5] = test: Herbicidal pre-emergence action (Table A5); format: in vivo, Setaria viridis; conditions: application rate 1280 g/ha; visual grading after ca. 3 weeks
Outline: as §1

POAAN [6] = test: Herbicidal pre-emergence action (Table A7); format: in vivo, Poa annua; conditions: Poa annua, pre-emergence, 504 h; application rate 1280 g/ha; visual grading after ca. 3 weeks; read-out: pre-emergence activity against POAAN
Outline: as §1

ALOMY [7] = test: Herbicidal pre-emergence action (Table A9); format: in vivo, Alopecurus myosuroides; conditions: application rate 1280 g/ha; visual grading after ca. 3 weeks
Outline: as §1

KCHSC = test: Herbicidal pre-emergence action (Table A10); format: in vivo, Kochia scoparia; conditions: application rate 1280 g/ha; visual grading after ca. 3 weeks
Outline: as §1

VERPE [8] = test: Herbicidal pre-emergence action (Table A11); format: in vivo, Veronica persica; conditions: application rate 1280 g/ha; visual grading after ca. 3 weeks
Outline: as §1

ALOMY [9] = test: Herbicidal post-emergence action (Table B2); format: in vivo, Alopecurus myosuroides; conditions: application rate 1280 g/ha; rated visually after about 3 weeks
Outline: (§2)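 Greenhouse pot test in sandy loam; weeds sown, treated post-emergence at one-leaf stage 2–3 weeks after sowing. Activity rated visually about 3 weeks later versus untreated controls, 100% = plants dead, 0% = like controls.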

ECHCG [10] = test: Herbicidal post-emergence action (Table B3); format: in vivo, Echinochloa crus-galli; conditions: Echinochloa crus-galli, post-emergence, 504 h; application rate 1280 g/ha; rated visually after about 3 weeks; read-out: post-emergence activity against ECHCG
Outline: as §2

POAAN [11] = test: Herbicidal post-emergence action (Table B7); format: in vivo, Poa annua; conditions: application rate 1280 g/ha
Outline: as §2

SETVI [12] = test: Herbicidal post-emergence action (Table B8); format: in vivo, Setaria viridis; conditions: application rate 1280 g/ha
Outline: as §2

VERPE [13] = test: Herbicidal post-emergence action (Table B10); format: in vivo, Veronica persica; conditions: application rate 1280 g/ha
Outline: as §2

ABUTH [14] = test: Herbicidal pre-emergence action, section C (Table C1); format: in vivo, Abutilon theophrasti; conditions: application rate 320 g/ha; visual grading after ca. 3 weeks
From the text: (§4) Seeds of mono- and dicotyledonous weed plants and crop plants were sown, in plastic or organic planting pots, in sandy loam and covered with soil. The compounds according to the invention, formulated in the form of wettable powders (WP) or as emulsifiable concentrates (EC), were applied to the surface of the covering soil as aqueous suspension or emulsion, with the addition of 0.5% of an additive, at an application rate of 600 1 of water/ha (converted). Following treatment, the pots were placed in a greenhouse and kept under optimum growth conditions for the test plants.

ALOMY [15] = test: Herbicidal pre-emergence action, section C (Table C2); format: in vivo, Alopecurus myosuroides; conditions: application rate 320 g/ha; visual grading after ca. 3 weeks
ECHCG [16] = test: Herbicidal pre-emergence action, section C (Table C6); format: in vivo, Echinochloa crus-galli; conditions: visual grading after ca. 3 weeks
LOLRI [17] = test: Herbicidal pre-emergence action, section C (Table C7); format: in vivo, Lolium rigidum; conditions: application rate 320 g/ha; visual grading after ca. 3 weeks
MATIN [18] = test: Herbicidal pre-emergence action, section C (Table C8); format: in vivo, Matricaria inodora; conditions: application rate 320 g/ha; visual grading after ca. 3 weeks
POLCO = test: Herbicidal pre-emergence action, section C (Table C9); format: in vivo, Polygonum convolvulus; conditions: visual grading after ca. 3 weeks
From the text: as §4

SETVI [19] = test: Herbicidal pre-emergence action, section C (Table C10); format: in vivo, Setaria viridis; conditions: application rate 80 g/ha; visual grading after ca. 3 weeks
VERPE [20] = test: Herbicidal pre-emergence action, section C (Table C11); format: in vivo, Veronica persica; conditions: application rate 320 g/ha; visual grading after ca. 3 weeks
VIOTR [21] = test: Herbicidal pre-emergence action, section C (Table C12); format: in vivo, Viola tricolor; conditions: visual grading after ca. 3 weeks
ABUTH [22] = test: Herbicidal post-emergence action, section E (Table E1); format: in vivo, Abutilon theophrasti; conditions: application rate 320 g/ha; assessed visually after ca. 3 weeks
From the text: (§3) 2 to 3 weeks after sowing, the test plants were sprayed in the single-leaf stage.

ALOMY [23] = test: Herbicidal post-emergence action, section E (Table E2); format: in vivo, Alopecurus myosuroides; conditions: assessed visually after ca. 3 weeks
From the text: as §3

ECHCG [24] = test: Herbicidal post-emergence action, section E (Table E5); format: in vivo, Echinochloa crus-galli; conditions: application rate 320 g/ha; assessed visually after ca. 3 weeks
From the text: as §3

SETVI [25] = test: Herbicidal post-emergence action, section E (Table E8); format: in vivo, Setaria viridis; conditions: application rate 320 g/ha; assessed visually after ca. 3 weeks
From the text: as §3

TRZAS = test: Post-emergence effects on crop plants (Table F2); format: in vivo, Triticum aestivum; conditions: application rate 320 g/ha, crop plant TRZAS
From the text: as §3

ORYZA = test: Post-emergence effects on crop plants (Table F3); format: in vivo, Oryza sativa; conditions: application rate 80 g/ha, crop plant ORYZA
From the text: as §3

BRSNW = test: Post-emergence effects on crop plants (Table F5); format: in vivo, Brassica napus; conditions: crop plant BRSNW
From the text: as §3

AMARE = test: Herbicidal pre-emergence action, section C (Table C3); format: in vivo, Amaranthus retroflexus; conditions: application rate 320 g/ha; visual grading after ca. 3 weeks
DIGSA = test: Herbicidal pre-emergence action, section C (Table C5); format: in vivo, Digitaria sanguinalis; conditions: application rate 80 g/ha; visual grading after ca. 3 weeks
VERPE [26] = test: Herbicidal post-emergence action, section E (Table E9); format: in vivo, Veronica persica; conditions: application rate 320 g/ha; assessed visually after ca. 3 weeks
From the text: as §3

VIOTR [27] = test: Herbicidal post-emergence action, section E (Table E10); format: in vivo, Viola tricolor; conditions: application rate 320 g/ha; assessed visually after ca. 3 weeks
From the text: as §3

ZEAMX = test: Post-emergence effects on crop plants (Table F1); format: in vivo, Zea mays; conditions: application rate 320 g/ha, crop plant ZEAMX
From the text: as §3

GLXMA = test: Post-emergence effects on crop plants (Table F4); format: in vivo, Glycine max; conditions: application rate 80 g/ha, crop plant GLXMA
From the text: as §3

SMILES: O=C1N(Cc2ccccc2)CCCC12CCCN(Cc1ccccc1F)C2=O (racemic) [I-010, 2-benzyl-8-(2-fluorobenzyl)-2,8-diazaspiro[5.5]undecane-1,7-dione]
- pre-emergence activity against ABUTH (ABUTH [1]): 90%
- pre-emergence activity against ECHCG (ECHCG [2]): 100%
- pest or weed control at 320 g/ha (LOLRI [3]): 100%
- pre-emergence activity against MATIN (MATIN [4]): 90%
- pre-emergence activity against SETVI (SETVI [5]): 90%
- pest or weed control at 1280 g/ha (POAAN [6]): 100%
- pre-emergence activity against ALOMY (ALOMY [7]): 90%
- pre-emergence activity against KCHSC (KCHSC): 90%
- pre-emergence activity against VERPE (VERPE [8]): 90%
- post-emergence activity against ALOMY (ALOMY [9]): 90%
- pest or weed control at 1280 g/ha (ECHCG [10]): 90%
- post-emergence activity against POAAN (POAAN [11]): 90%
- post-emergence activity against SETVI (SETVI [12]): 90%
- post-emergence activity against VERPE (VERPE [13]): 90%
- pre-emergence activity against ABUTH (ABUTH [14]): 90%
- pre-emergence activity against ALOMY (ALOMY [15]): 100%
- pre-emergence activity against ECHCG (ECHCG [16]; application rate 80 g/ha): 100%
- pre-emergence activity against LOLRI (LOLRI [17]): 100%
- pre-emergence activity against MATIN (MATIN [18]): 90%
- pre-emergence activity against POLCO (POLCO; application rate 320 g/ha): 80%
- pre-emergence activity against SETVI (SETVI [19]): 100%
- pre-emergence activity against VERPE (VERPE [20]): 80%
- pre-emergence activity against VIOTR (VIOTR [21]; application rate 80 g/ha): 80%
- post-emergence activity against ABUTH (ABUTH [22]): 80%
- post-emergence activity against ALOMY (ALOMY [23]; application rate 80 g/ha): 80%
- post-emergence activity against ECHCG (ECHCG [24]): 90%
- post-emergence activity against SETVI (SETVI [25]): 80%
- post-emergence activity against TRZAS (TRZAS): 0%
- post-emergence activity against ORYZA (ORYZA): 0%
- post-emergence activity against BRSNW (BRSNW; application rate 320 g/ha): 0%

SMILES: O=C1N(Cc2c(F)cccc2F)CCCC12CCCN(Cc1c(F)cccc1F)C2=O (racemic) [I-006, 2,8-bis[(2,6-difluorophenyl)methyl]-2,8-diazaspiro[5.5]undecane-1,7-dione]
- pre-emergence activity against ALOMY (ALOMY [15]): 100%
- pre-emergence activity against AMARE (AMARE): 90%
- pre-emergence activity against DIGSA (DIGSA): 100%
- pre-emergence activity against ECHCG (ECHCG [16]; application rate 320 g/ha): 100%
- pre-emergence activity against LOLRI (LOLRI [17]): 100%
- pre-emergence activity against MATIN (MATIN [18]): 80%
- pre-emergence activity against POLCO (POLCO; application rate 80 g/ha): 100%
- pre-emergence activity against SETVI (SETVI [19]): 100%
- pre-emergence activity against VERPE (VERPE [20]): 90%
- pre-emergence activity against VIOTR (VIOTR [21]; application rate 38 g/ha (so in the source)): 90%
- post-emergence activity against ABUTH (ABUTH [22]): 80%
- post-emergence activity against ALOMY (ALOMY [23]; application rate 320 g/ha): 90%
- post-emergence activity against ECHCG (ECHCG [24]): 80%
- post-emergence activity against VERPE (VERPE [26]): 80%
- post-emergence activity against VIOTR (VIOTR [27]): 80%
- post-emergence activity against ZEAMX (ZEAMX): 20%
- post-emergence activity against TRZAS (TRZAS): 10%
- post-emergence activity against ORYZA (ORYZA): 10%
- post-emergence activity against GLXMA (GLXMA): 20%
- post-emergence activity against BRSNW (BRSNW; application rate 80 g/ha): 20%
